These results are taken from US12187758B2 (ROME Therapeutics, Inc., priority 2022, dated 2025).

In data set [1] the test system is interferon-stimulated gene (ISG) response. As to the kind of experiment: In vivo decitabine challenge model in BALB/c mice. The following applies: decitabine i.p. 5 mg/kg, RNAseq. As for the experimental part: Thirty 9-11 week old BALB/c mice were acclimated to the lab for at least 5 days. Compounds 2, 40 and 67 were prepared in a 20% PEG400 (pH 3.5) solution for p.o. administration, compounds were prepared no more than 30 minutes prior to daily dosing. Decitabine (Sigma) was dissolved in sterile PBS (pH 7.4) and dosed within 30 minutes of preparation of the solution. Doses of both the compound and decitabine were administered once a day, every day from Day 0 to day 4. On Day 0, mice were split into […] of five mice and given their first dose of decitabine (i.p., 5 mg/kg) and compound. Dosing groups were as in the following table (all doses in mg/kg): [table] Decitabine (i.p., 5 mg/kg) and compounds 2, 40 or 67 were administered daily from […] to Day 4. All mice were euthanized 1 hour after the last dose administration on Day 4. Spleen and kidneys were harvested and snap frozen in liquid nitrogen, and plasma (EDTA) was collected for bioanalysis. Total RNA was isolated using the PureLink RNA Mini Kit (ThermoFisher) and prepared for RNAseq using the TruSeq Stranded mRNA platform (Illumina). 50M Stranded reads were collected on an Illumina HiSeq system. Data were analyzed as follows: RNA sequencing reads were aligned to the […] reference genome using the STAR RNA-seq aligner (Dobin et al., 2013). Expression of each transcript was quantified using Salmon (Patro, et al. 2015) TPM values for each transcript. These transcript-level TPM values were aggregated by gene to get gene-level TPM values, and log-transformed these values. Mouse orthologs for each gene in the list of ISG-associated genes in the human genome from Liu et al., 2019 using Ensembl BioMart (Kinsella et al., 2011) were identified. The ISG score for each sample was calculated as the median log-transformed TPM value across all genes in this ISG gene set.

A further data set concerns 7S mitochondria DNA. As to the kind of experiment: Mitochondria DNA assay with PC3 cells. The data set is classed as cell-based. Conditions: Homo sapiens, PC-3, 120 h, 5 days, 7S mitochondria DNA level by qPCR relative to 18S or GAPDH. As for the experimental part:
Exemplary compounds were tested for their effect on levels of 7S mitochondria DNA, and the DNA of housekeeping genes 18S and GAPDH. Reduction of 7S mitochondria DNA indicates off-target inhibition of mitochondrial DNA synthesis, which leads to mitochondrial toxicity. Assay procedures and results are described below.
PC3 cells were purchased from ATCC and cultured in F-12 Kaighn's modified medium (Hyclone), 10% heat-inactivated fetal bovine serum (Gibco), 1% Penicillin-Streptomycin (Invitrogen). PC3 cells were treated with a dose titration of a test compound on 6 well plates for 5 days at 37° C., 5% CO2 in a humidified incubator.
Cells were harvested and mitochondria DNA extraction was performed using DNeasy Blood & Tissue Kit (Qiagen) according to the manufacture's instruction.
Mitochondria 7S and housekeeping genes 18S and GAPDH DNA was quantified by multiplex qPCR with the PowerUp™ SYBR™ Green system (Applied Biosystems). Prepare reaction mix consisting of 5 μl of 2× PowerUp™ SYBR™ Green Master Mix, 1 μl of 5 μM Primers for 7S, 18S, or GAPDH, 4 μl of DNA template from DNA extraction above. The primer sequences are below:
qPCR was performed on QuantStudio™ 7 Flex RealTime qPCR system (Applied Biosystems) as set forth below: • a. 50° C. for 2 minutes, then • b. 95° C. for 2 minutes, then • c. 95° C. for 15 seconds, then • d. 60° C. for 60 seconds, • where then steps (c) and (d) were repeated 60 times.
Threshold was calculated by QuantStudio™ 7 Flex Software (ThermoFisher Scientific) using the default settings. Ct values were used to evaluate the relative mitochondria DNA (mtDNA) level using the following formula: ΔCt=Ct (7S target gene)−Ct (18S) or ΔCt=Ct (7S target gene)−Ct (GAPDH). Relative mtDNA level=2^−Δct. Expression fold over DMSO control=2^−Δct (compound treated group)/2^−Δct (DMSO group)
In the table “A” represents values≤0.1 μM; “B” represents values from >0.1 μM to ≤1.0 μM; “C” represents values from >1.0 μM to ≤10.0 μM; “D” represents values from >10.0 μM to ≤100.0 μM; and “E” represents values>100.0 μM.
For orientation: Quantitative PCR measures a nucleic acid by following its amplification.

In a further data set the test system is pTBK1. As to the kind of experiment: pTBK1 level with and without UVB exposure (Example 111). Conditions: varying concentrations of compound, alone or after UVB exposure (FIGS. 4B and 4C). The data set is classed as cell-based.
For another data set, the system named is human PBMC. The data set can be described thus: Decitabine-stimulated human PBMC assay. The following applies: PBMCs, 5 days; for IFN-β production: anti-CD3/anti-CD28, decitabine 10 μM, FIGS. 3A and 3B. It counts as cell-based. On the procedure: EasySep buffer (32 mL, […] Technologies, cat. #20144) was used to dilute 8 mL of LRSC buffy coat (from fresh Leukopak) with gentle mixing. The diluted buffy coat (20 mL) was transferred into each of two SepMate 50 tubes, and the tubes were filled with 15 mL of Lyphoprep ([…], cat. #07851) density gradient. The SepMate tubes were then centrifuged at 1200 G for 10 minutes at room temperature with the brake on. The top layer of supernatant was collected in SepMate tubes by quickly pouring it into a new 50 mL conical tube. The PBMCs were washed with EasySep buffer×2 by centrifuging at 300 G for 5 minutes. The cells were resuspended in 30 mL of EasySep and centrifuged at 100 G for 5 minutes with the brake off, and the platelets were removed. The cells were then resuspended in 6 mL of 1×RBC lysis buffer (Invitrogen) and incubated at 37° C. for 5 minutes. 25 mL of EasySep buffer was then mixed into the tube and centrifuged at 300 G for 5 minutes. The cells were resuspended in 10 mL of EasySep buffer and the cells were then counted with Cellometer (AO/PI). The PBMCs were resuspended in RPMI1640 (ThermoFisher)+ 10% FBS (HyClone)+μ/s at 3×10^6/mL. The PBMCs (100 μL, 300 k PBMCs) were then seeded in a 96-well flat bottom microplate (Corning) that had been precoated with 100 μL of anti-CD3 antibody (10 μg/mL in PBS, Biolegend) or PBS at 4° C., one day before the assay was commenced.
To each well the following solutions were added 1) 100 μL of cells (final cell number per well is 3×10^5 cell/well); 2) 25 μL of anti-CD28 antibody at 6× (5 μg/mL final concentration, Biolegend); 3) 25 μL of decitabine at 6× (10 μM final concentration); and 4) Compound in DMSO was dispensed directly into each well with a d300e digital dispenser (Tecan). The final concentration of DMSO for each well was normalized to 0.3%. The plate was incubated at 37° C. without any agitation for 5 days. Samples were collected 120 hours after incubation to determine IFN-β […] levels using a U-PLEX Human IFN-β Assay Sector (5PL) (MSD, cat. #K151VIK-2).
After 5 days, the plate was spun down at 100×G for 5 minutes. Supernatants (100 μL) were collected for interferon R (IFN-0) analysis using the MSD assay noted above, and any residual supernatant was stored at −80° C.

`Nc1nc(=O)n([C@@H]2O[C@@](CO)(CCl)[C@@H](O)[C@@H]2F)cc1F` [Compound 67, 4-amino-1-[(2R,3S,4R,5R)-5-(chloromethyl)-3-fluoro-4-hydroxy-5-(hydroxymethyl)oxolan-2-yl]-5-fluoropyrimidin-2-one]: the “change in the ISG Score in the spleen and kidney” value (from here on “change in the ISG Score”) was “show a change in the ISG Score in the spleen and kidney” in data set [1] (compound 30 mg/kg p.o. daily); “show a change in the ISG Score in the spleen and kidney” in data set [1] (compound 100 mg/kg p.o. daily). In addition, the half-maximal inhibitory concentration (IC50) (as a rule, the concentration at which inhibition is half-maximal) in the data set on 7S mitochondria DNA was > 100 µM.

For the compound `[N-]=[N+]=N[C@]1(CO)O[C@@H](n2cc(F)c(N)nc2=O)C[C@@H]1O` [Compound 61, 4-amino-1-((2R,4S,5R)-5-azido-4-hydroxy-5-(hydroxymethyl)tetrahydrofuran-2-yl)-5-fluoropyrimidin-2(1H)-one], in the data set on 7S mitochondria DNA, the IC50 is > 100 µM.

With `Nc1ccn([C@@H]2O[C@@](CO)(CCl)[C@@H](O)[C@@H]2F)c(=O)n1` [Compound 40, 4-amino-1-((2R,3S,4R,5R)-5-(chloromethyl)-3-fluoro-4-hydroxy-5-(hydroxymethyl)tetrahydrofuran-2-yl)pyrimidin-2(1H)-one], the “level of pTBK1” value with pTBK1 was “varies in a dose-dependent fashion”. Moreover, the IFN-β production result in the data set with human PBMC is recorded as “showed inhibition of IFN-β”. The cell viability entry in the data set on human PBMC (decitabine 10 μM) is “some cell viability losses at higher concentrations”. Further, the “change in the ISG Score” value in data set [1] (compound 100 mg/kg p.o. daily) was “show a change in the ISG Score in the spleen and kidney”. In the data set on 7S mitochondria DNA, the IC50 was > 100 µM.

As for `Nc1ccn([C@H]2C[C@H](O)[C@](CO)(CCl)O2)c(=O)n1` [Compound 2, 4-amino-1-((2R,4S,5R)-5-(chloromethyl)-4-hydroxy-5-(hydroxymethyl)tetrahydrofuran-2-yl)pyrimidin-2(1H)-one], the “level of pTBK1” value in the data set with pTBK1 is on record as “varies in a dose-dependent fashion”. The IFN-β production entry in the data set with human PBMC is recorded as “showed inhibition of IFN-β”. In addition, the “change in the ISG Score” value in data set [1] (compound 100 mg/kg p.o. daily) is “show a change in the ISG Score in the spleen and kidney”. Moreover, in the data set on 7S mitochondria DNA, the IC50 was ≤ 0.1 µM.

Turning to `Nc1nc(=O)n([C@H]2C[C@H](O)[C@](CO)(CCl)O2)cc1F` [Compound 14, 4-amino-1-((2R,4S,5R)-5-(chloromethyl)-4-hydroxy-5-(hydroxymethyl)tetrahydrofuran-2-yl)-5-fluoropyrimidin-2(1H)-one], the “level of pTBK1” value with pTBK1 is “varies in a dose-dependent fashion”. Also, in the data set with 7S mitochondria DNA, the IC50 was ≤ 0.1 µM.

As for `C#C[C@]1(CO)O[C@@H](n2cnc3c(N)nc(Cl)nc32)C[C@@H]1O` [Compound 25], the IFN-β production result with human PBMC is “activated production of IFN-β”. The IC50 with 7S mitochondria DNA is > 100 µM.

With `CC[C@]1(CO)O[C@@H](n2ccc(N)nc2=O)C[C@@H]1O` [Compound 44, 4-amino-1-((2R,4S,5R)-5-ethyl-4-hydroxy-5-(hydroxymethyl)tetrahydrofuran-2-yl)pyrimidin-2(1H)-one], the “level of pTBK1” value with pTBK1 is recorded as “varies in a dose-dependent fashion”. Also, the IC50 with 7S mitochondria DNA was > 100 µM.

As to `Nc1nc(=O)n([C@H]2C[C@H](O)[C@](CO)(CBr)O2)cc1F` [Compound 88, 4-amino-1-((2R,4S,5R)-5-(bromomethyl)-4-hydroxy-5-(hydroxymethyl)tetrahydrofuran-2-yl)-5-fluoropyrimidin-2(1H)-one], the IC50 in the data set with 7S mitochondria DNA was ≤ 0.1 µM.
